Laboratory results as given in patent US10383905B2, “Extract of Cynara ssp. and uses thereof” (ABOCA S.P.A. SOCIETA' AGRICOLA, priority 2013, dated 2019).

What was measured:
untransformed HMC cells = assay: ATPlite vitality assay, extract in association with pemetrexed, HMC; type: cell-based, human; settings: non-tumour HMC cells
Experimental: (§1) The assay shown in FIG. 10 was performed using ATPlite™ assay (Perkin Elmer) in accordance with the producer's instructions.
(§2) A solution of water for injectable solutions and ethanol at a concentration of 1:1 was used in the same volumes used for the treatments.
(§3) pemetrexed (Alimta, Lilly) diluted in accordance with the producer's instructions.
(§4) The concentrations of the assayed compound are plotted on the abscissa, whereas the cell vitality expressed in percentage is plotted on the ordinate.

MSTO211H and NCI-H2052 = assay: ATPlite vitality assay, extract in association with pemetrexed, MPM lines; type: cell-based, human; settings: MPM cells, 72 h
Experimental: Cell lines MSTO211H and NCI-H2052 were used to evaluate the effects of the association of extract of Cynara scolymus+anti-tumour drug.
as §1, §2, §3, §4

STAT3 [1] = assay: STAT3 phosphorylation after pre-treatment with glutathione ethylene ester; type: cell-based
GSH = assay: Intracellular analyses of GSH; type: cell-based; settings: 12.5, 25, 50 μM
Experimental: The intracellular concentration of GSH was evaluated by means of a colorimetric method. The cell extract, deproteinised by means of 10% trichloroacetic acid, was treated with dithio nitrobenzene (DTNB), and the quantity of TNB, which is released following the reaction with GSH, was evaluated by analysing the absorbance at 412 nm.

STAT3 [2] = molecular target: T1, STAT3 (Homo sapiens, UniProt P40763); assay: EMSA of STAT3 binding to DNA in DU-145 cells; type: cell-based; set-up: The cell line DU145 expresses pStat3 in a constitutive manner; endogenous in cells; host or cells: DU-145 (human prostate carcinoma, ATCC HTB-81); settings: read-out: EC50 inhibition of the ability of STAT3 to bind to DNA
T1 sequence (P40763 whole entry): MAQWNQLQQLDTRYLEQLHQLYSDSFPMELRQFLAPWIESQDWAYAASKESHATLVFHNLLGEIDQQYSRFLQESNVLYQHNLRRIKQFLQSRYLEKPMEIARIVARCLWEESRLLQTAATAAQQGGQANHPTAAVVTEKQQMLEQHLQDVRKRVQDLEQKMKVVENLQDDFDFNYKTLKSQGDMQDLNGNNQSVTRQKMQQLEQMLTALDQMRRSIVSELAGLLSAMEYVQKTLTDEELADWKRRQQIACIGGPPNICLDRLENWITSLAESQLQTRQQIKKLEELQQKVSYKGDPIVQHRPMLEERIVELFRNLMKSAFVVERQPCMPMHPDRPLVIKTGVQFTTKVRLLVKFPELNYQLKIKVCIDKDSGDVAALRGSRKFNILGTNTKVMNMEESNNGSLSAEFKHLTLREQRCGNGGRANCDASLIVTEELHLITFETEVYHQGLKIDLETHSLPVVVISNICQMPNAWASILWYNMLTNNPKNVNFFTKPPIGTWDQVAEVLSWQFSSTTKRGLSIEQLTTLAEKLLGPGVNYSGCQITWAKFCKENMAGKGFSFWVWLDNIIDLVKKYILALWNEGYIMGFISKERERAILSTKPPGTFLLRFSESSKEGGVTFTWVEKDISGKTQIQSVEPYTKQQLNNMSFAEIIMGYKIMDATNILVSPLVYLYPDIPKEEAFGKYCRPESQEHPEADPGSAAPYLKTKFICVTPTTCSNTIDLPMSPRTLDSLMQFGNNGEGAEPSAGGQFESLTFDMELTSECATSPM

STAT3 [3] = assay: Glutathionylation of STAT3; type: cell-based; settings: 12 microM and 25 μM
Experimental: STAT3 was immunoprecipitated by incubating the protein cell extract overnight with an anti-STAT3 antibody. The proteins obtained were separated by means of SDS-PAGE in non-reducing conditions and were transferred on PVDF membrane. The glutathionylated STAT3 was recognised using an anti-GSH antibody.

[4] = test system: human prostate tumour cell line DU145; assay: WST-1 vitality assay in association with chemotherapeutic agents; type: cell-based
Experimental: (§5) Cytotoxicity was assayed using the WST assay (WSTs=water soluble tetrazolium salts), and utilises the ability of mitochondrial dehydrogenases to separate the tetrazole ring from the yellow-coloured WST molecule (tetrazolium salt) to give an orange formazan salt. The amount of formazan produced following the treatment of the cells with the substances being tested is measured using spectrophotometry and is proportional to the number of living cells. WST-1 and in particular WST-8 (2-(2-methoxy-4-nitrophenyl)-3-(4-nitrophenyl)-5-(2,4-disulfophenyl)-2H-tetrazolium) are advantageous with respect to MTT because they reduce outside the cells, in combination with PMS as electron mediator, to produce water-soluble formazan.
The assays were carried out in parallel with variable doses of cynaropicrin in place of the extract to compare the efficacy of the extract and that of cynaropicrin.

STAT3 [5] = molecular target: T1, STAT3; assay: Western Blot of STAT3 phosphorylation in KARPAS cells; type: cell-based; set-up: The cell line DU145 expresses pStat3 in a constitutive manner; endogenous in cells; host or cells: DU-145 (human prostate carcinoma, ATCC HTB-81); settings: read-out: EC50 inhibition of the phosphorylation of STAT3
Experimental: (§6) The cells were lysed in ice for 30 min in lysis buffer NP40 (50 mM Tris-HCl pH 7.4, 150 mM NaCl, 1% NP-40, 1 mM EGTA, 1 mM EDTA) complemented with inhibitors of protease and phosphatase (5 mM PMSF, 3 mM NaF, 1 mM DTT, 1 mM NaVO4). Equal amounts of total extracts of protein (30 μg) were broken down by means of denaturing electrophoresis (SDS-PAGE) in 8% polyacrylamide gel and transferred for 2 hours on nitrocellulose membrane. The membranes were blocked with a 5% solution of milk dissolved in TBS-Tween_20 0.05% for 1 hour and incubated with the specific primary antibodies. The following primary antibodies were used: anti-beta actin (A-2228, SIGMA), anti-pSTAT3 (Tyr-705) (sc8059, Santa Cruz) and anti-STAT3 (sc7179, Santa Cruz). The secondary antibodies were peroxidase-conjugated (Santa Cruz), and ECL reagents (Amersham, GE Healthcare. Piscataway, N.J., USA) were used for the chemiluminescence.
(§7) 2. The Extract of Cynara scolymus and Cynaropicrin Inhibit the Activation of STAT3 in DU-145 Cells and in KARPAS Cells:
(§8) 200 μg/ml of extract that contains 0.181% of cynaropricrin contain 1.2 μM of cynaropricrin.

STAT3 [6] = molecular target: T1, STAT3; assay: Western Blot of STAT3 phosphorylation in DU-145 cells; type: cell-based; set-up: The cell line DU145 expresses pStat3 in a constitutive manner; endogenous in cells; host or cells: DU-145 (human prostate carcinoma, ATCC HTB-81); settings: read-out: EC50 inhibition of the phosphorylation of STAT3
Experimental: as §6, §7, §8

STAT3 [7] = molecular target: T1, STAT3; assay: EMSA of STAT3 binding to DNA in KARPAS cells; type: cell-based; set-up: endogenous in cells; settings: read-out: EC50 inhibition of the ability of STAT3 to bind to DNA
[8] = test system: confluent prostatic adenocarcinoma cell line DU-145; assay: WST-1 cell vitality assay, confluent DU-145; type: cell-based, human
Experimental: as §5
6.2 WST-1 assay on cell line DU145 at 24 and 48 hours with 0-100-200-300-400-500-600 μg/ml of extract of Cynara scolymus (cynaropicrin=1.361%), which inhibits, in a time-dependent and dose-dependent manner, the vitality of the DU-145 cells.
6.3 WST-1 assay on cell line DU145 at 24 and 48 hours with cynaropicrin 0-10-20-30-40-50-60 μM inhibits, in a dose-dependent and time-dependent manner, the vitality of DU-145 cells.

| Structure (SMILES) | cell vitality, pemetrexed alone (untransformed HMC cells) | cell vitality, pemetrexed alone (MSTO211H and NCI-H2052) | effect of restoration of GSH on inhibition of STAT3 phosphorylation (STAT3 [1]) | intracellular concentration of GSH (GSH) | EC50 (STAT3 [2]) [µM] | glutathionylation of STAT3 (STAT3 [3]) | molarity of cynaropicrin needed to reduce cell vitality below 20%, relative to that present in the artichoke extract ([4]; DU145, with cisplatinum 15 μg/ml) | molarity of cynaropicrin needed to reduce cell vitality below 20%, relative to that present in the artichoke extract ([4]; DU145, with doxorubicin 2 μg/ml) | EC50 (STAT3 [5]) [µM] | EC50 (STAT3 [6]) [µM] | EC50 (STAT3 [7]) [µM] | reduction of vitality ([8]; confluent DU-145, 50 μM for 48 hours) | cell vitality ([8]; confluent DU-145, cynaropicrin 0-70 μM, 24 or 48 hours) |
| --- | --- | --- | --- | --- | --- | --- | --- | --- | --- | --- | --- | --- | --- |
| Nc1nc2[nH]cc(CCc3ccc(C(=O)N[C@@H](CCC(=O)O)C(=O)O)cc3)c2c(=O)[nH]1 [PMTX, pemetrexed] | highly toxic for the non-tumour cells | cytotoxic for the MPM cells | – | – | – | – | – | – | – | – | – | – | – |
| C=C(CO)C(=O)O[C@H]1CC(=C)[C@@H]2C[C@H](O)C(=C)[C@@H]2[C@H]2OC(=O)C(=C)[C@@H]21 [cynaropicrin] | – | – | reverses the ability of cynaropicrin to inhibit the phosphorylation of STAT3 | time-dependent and dose-dependent reduction of the intracellular concentration of GSH | 25 | determines the glutathionylation of STAT3 | forty times greater | approximately twenty-five times greater | 25 | 25 | 25 | approximately 90% | inhibits cell vitality in a time-dependent and dose-dependent manner |
